Measured values from patent publication US5225528A, “Cyclic hexapeptide oxytocin antagonists” (priority 1990, dated 1993).
Where two headings read alike, the source gives them in different places. Square brackets hold non-standard residues; d marks the D form. Peptide text beside a SMILES is read from it. dPiz(1,6-dehydro) = O=C(O)[C@H]1CCC=NN1; Pip = O=C(O)[C@@H]1CCCCN1

How the values were obtained:
[1] = biological target: T1, AVP-V1 sites (Rattus norvegicus, UniProt P30560); assay: [^3 H]AVP binding to crude membrane preparation of male rat liver (AVP-V1 sites); details: for IC50: read-out: Receptor Binding Results IC50 (nM) [^3 H]-AVP-V1
T1 construct: crude membrane preparation of male rat liver (AVP-V1 sites); from tissue; host or cells: male rat liver, crude membranes
T1 sequence (P30560 whole entry): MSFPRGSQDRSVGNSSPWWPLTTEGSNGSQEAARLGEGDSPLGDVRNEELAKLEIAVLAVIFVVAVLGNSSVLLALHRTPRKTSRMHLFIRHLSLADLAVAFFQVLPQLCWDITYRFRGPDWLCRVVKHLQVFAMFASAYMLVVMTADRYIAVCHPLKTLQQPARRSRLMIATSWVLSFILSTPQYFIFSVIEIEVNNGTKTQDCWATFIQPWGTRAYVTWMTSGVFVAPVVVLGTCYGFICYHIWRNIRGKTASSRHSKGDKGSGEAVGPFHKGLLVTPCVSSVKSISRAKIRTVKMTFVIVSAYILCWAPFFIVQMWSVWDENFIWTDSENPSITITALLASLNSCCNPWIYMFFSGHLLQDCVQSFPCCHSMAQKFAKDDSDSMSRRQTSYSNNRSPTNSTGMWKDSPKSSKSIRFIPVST
Method: (§1) Nonspecific binding (5-10% of the total binding) was determined using 10 μM unlabeled AVP, and the binding reaction was terminated by filtration as described above for the [^3 H]OT binding assay.

[2] = biological target: T2, AVP-V2 sites (Rattus norvegicus, UniProt Q00788); assay: [^3 H]AVP binding to crude membrane preparation of male rat kidney medulla (AVP-V2 sites); details: for IC50: rat kidney medulla membranes, 2 nM [^3 H]AVP, read-out: Receptor Binding Results IC50 (nM) [^3 H]-AVP-V2
T2 construct: male rat liver (AVP-V1 sites) or kidney medulla (AVP-V2 sites); from tissue; host or cells: male rat kidney medulla, crude membranes
T2 sequence (Q00788 whole entry): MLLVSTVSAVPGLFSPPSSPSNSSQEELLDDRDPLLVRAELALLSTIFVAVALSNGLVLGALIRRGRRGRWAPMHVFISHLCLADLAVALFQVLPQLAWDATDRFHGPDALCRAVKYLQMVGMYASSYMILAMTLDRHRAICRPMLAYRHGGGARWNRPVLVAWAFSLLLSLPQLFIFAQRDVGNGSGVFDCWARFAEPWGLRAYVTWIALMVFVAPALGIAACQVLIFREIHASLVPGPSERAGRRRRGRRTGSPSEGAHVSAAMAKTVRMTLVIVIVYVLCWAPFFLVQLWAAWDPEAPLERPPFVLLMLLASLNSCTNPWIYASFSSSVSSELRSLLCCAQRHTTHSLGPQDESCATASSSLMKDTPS
Method: as §1

[3] = biological target: T3, uterine OT receptors (Rattus norvegicus, UniProt P70536); assay: [^3 H]OT binding to uterine OT receptors, crude membrane preparation of uteri from DES-treated rats
T3 construct: from tissue; host or cells: uterus of DES-treated rats, crude membranes
T3 sequence (P70536 1-388): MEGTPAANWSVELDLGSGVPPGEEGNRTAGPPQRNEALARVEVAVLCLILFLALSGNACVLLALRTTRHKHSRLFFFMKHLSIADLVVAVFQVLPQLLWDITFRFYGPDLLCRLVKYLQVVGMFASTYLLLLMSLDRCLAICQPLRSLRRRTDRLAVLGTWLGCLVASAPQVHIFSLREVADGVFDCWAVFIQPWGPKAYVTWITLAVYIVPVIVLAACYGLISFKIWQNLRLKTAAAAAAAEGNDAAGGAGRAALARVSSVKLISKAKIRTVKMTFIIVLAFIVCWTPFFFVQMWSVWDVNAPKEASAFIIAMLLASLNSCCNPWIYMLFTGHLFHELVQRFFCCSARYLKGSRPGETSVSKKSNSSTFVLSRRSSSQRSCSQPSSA
Method: Competition studies were conducted at equilibrium (60 minutes; 22° C.) using 1 nM [^3 H]OT in the following assay buffer: 50 mM Tris-HCl, 5 mM MgCl2, and 0.1% BSA, pH 7.4.

[4] = rat liver membranes, 1 nM [^3 H]AVP
[5] = rat uterus membranes, 1 nM [^3 H]OT, read-out: Receptor Binding Results IC50 (nM) [^3 H]OT

In the case of `CC[C@H](C)[C@@H]1NC(=O)[C@@H](Cc2c[nH]c3ccccc23)NC(=O)[C@@H]2CCCN2C(=O)[C@@H](Cc2cnc[nH]2)NC(=O)[C@@H]2CCCCN2C(=O)[C@H]2CCC=NN2C1=O` [Example 184, c-[D-Tryptophanyl-L-isoleucinyl-D-Δ-piperazyl-L-pipecolyl-D-histidyl-L-prolyl]] (cyclo(I[dPiz(1,6-dehydro)][Pip][dH]P[dW])), the IC50 [1] is reported as 3980 nM, the IC50 [2] is reported as 1050 nM and the IC50 ([3]; Receptor Binding Results IC50 (nM) [^3 H]OT) is reported as 6 nM.

“C-[D,L-3-(3-(5-Methoxy)indolyl)alanyl-L-isoleucyl-D-pipecolyl-L-pipecolyl-D-histidyl-L-prolyl] [Example 156]” was tested, and the IC50 [1, 4] was > 30000 nM, the IC50 [2] was > 30000 nM and the IC50 [3, 5] was 1100 nM.

“c-[D,L-3-(3-(5-Methyl)indolyl)alanyl-L-isoleucyl-D-pipecolyl-L-pipecolyl-D- histidyl-L-prolyl] [Example 154]” was tested, and the IC50 [1, 4] was 13000 nM, the IC50 [2] was 7300 nM and the IC50 [3, 5] was 680 nM.

“c-[D-2-Trytophanyl-L-isoleucinyl-D-pipecolyl-L-piperazin-2-yl-(4-Cbz)-D-histidinyl(BOM)-L-prolyl] [Example 175]” was tested, and the “[^3 H]-AVP-V1: percent inhibition of radioligand at the given concentration” value ([1]; @ 10,000 (nM)) was 54%, the “[^3 H]-AVP-V2: percent inhibition of radioligand at the given concentration” value ([2]; @ 10,000 (nM)) was 81% and the “[^3 H]OT: percent inhibition of radioligand at the given concentration” value ([3]; @ 1,000 (nM)) was 79%.
